# Results as given in ChEMBL document CHEMBL6153102, “Rational Design, Synthesis, and Biological Evaluation of Novel c-Met Degraders for Lung Cancer Therapy” (J Med Chem, 2025).
# Active and inactive are the calls of the source. The calls are words filed in the database; no cut-off is given here.
# How the values were obtained:
# EBC-1 [1] = assay: Antitumor activity against human EBC-1 cells xenografted BALB/c nude mouse assessed as reduction in tumor volume at 10 mg/kg, ip administered for 7 days; assay type: functional; design: scale not given: the % may be the effect or the level left; details: time 7 day
# [2] = target: T1, Protein cereblon/Hepatocyte growth factor receptor (Homo sapiens, UniProt P08581+Q96SW2); assay: PROTAC activity at c-Met/CRBN in human A549 cells assessed as induction of c-Met degradation incubated for 24 hrs by Western blotting analysis; assay type: cell-based
# Target sequence in this assay (P08581 whole entry): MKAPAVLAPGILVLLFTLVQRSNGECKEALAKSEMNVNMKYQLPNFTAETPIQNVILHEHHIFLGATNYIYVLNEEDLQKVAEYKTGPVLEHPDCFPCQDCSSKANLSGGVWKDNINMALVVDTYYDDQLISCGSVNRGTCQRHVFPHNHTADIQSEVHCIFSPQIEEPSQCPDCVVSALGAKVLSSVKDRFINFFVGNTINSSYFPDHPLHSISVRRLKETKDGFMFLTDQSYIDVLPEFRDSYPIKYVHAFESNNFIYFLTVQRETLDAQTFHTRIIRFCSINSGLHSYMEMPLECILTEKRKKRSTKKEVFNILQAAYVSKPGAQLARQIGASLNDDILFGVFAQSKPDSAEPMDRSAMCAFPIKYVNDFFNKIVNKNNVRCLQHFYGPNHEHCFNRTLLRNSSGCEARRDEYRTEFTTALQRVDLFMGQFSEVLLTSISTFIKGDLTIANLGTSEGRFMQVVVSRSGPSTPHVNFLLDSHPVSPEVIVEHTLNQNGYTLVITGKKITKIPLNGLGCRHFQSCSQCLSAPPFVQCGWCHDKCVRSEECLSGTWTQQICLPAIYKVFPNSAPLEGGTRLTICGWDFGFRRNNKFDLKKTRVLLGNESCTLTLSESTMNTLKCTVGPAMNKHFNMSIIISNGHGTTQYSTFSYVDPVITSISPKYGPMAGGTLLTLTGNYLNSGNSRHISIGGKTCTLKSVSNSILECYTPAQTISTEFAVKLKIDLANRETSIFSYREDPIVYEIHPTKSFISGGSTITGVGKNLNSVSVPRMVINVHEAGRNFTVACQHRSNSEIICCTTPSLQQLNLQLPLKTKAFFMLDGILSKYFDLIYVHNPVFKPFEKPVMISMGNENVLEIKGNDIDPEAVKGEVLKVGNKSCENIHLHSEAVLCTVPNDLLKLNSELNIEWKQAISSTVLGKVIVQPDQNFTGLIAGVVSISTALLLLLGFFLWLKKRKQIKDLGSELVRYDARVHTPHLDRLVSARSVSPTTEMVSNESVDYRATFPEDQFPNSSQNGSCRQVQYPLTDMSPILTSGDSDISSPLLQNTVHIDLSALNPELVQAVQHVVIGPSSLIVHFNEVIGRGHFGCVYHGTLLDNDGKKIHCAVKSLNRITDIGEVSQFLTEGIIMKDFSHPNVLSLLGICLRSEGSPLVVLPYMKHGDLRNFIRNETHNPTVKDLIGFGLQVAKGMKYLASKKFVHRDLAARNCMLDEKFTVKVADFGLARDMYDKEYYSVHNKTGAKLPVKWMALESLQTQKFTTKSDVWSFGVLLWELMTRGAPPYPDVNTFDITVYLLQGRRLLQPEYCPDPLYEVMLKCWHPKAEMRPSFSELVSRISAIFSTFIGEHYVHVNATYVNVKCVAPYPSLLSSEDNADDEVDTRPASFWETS
# Target sequence in this assay (Q96SW2 whole entry): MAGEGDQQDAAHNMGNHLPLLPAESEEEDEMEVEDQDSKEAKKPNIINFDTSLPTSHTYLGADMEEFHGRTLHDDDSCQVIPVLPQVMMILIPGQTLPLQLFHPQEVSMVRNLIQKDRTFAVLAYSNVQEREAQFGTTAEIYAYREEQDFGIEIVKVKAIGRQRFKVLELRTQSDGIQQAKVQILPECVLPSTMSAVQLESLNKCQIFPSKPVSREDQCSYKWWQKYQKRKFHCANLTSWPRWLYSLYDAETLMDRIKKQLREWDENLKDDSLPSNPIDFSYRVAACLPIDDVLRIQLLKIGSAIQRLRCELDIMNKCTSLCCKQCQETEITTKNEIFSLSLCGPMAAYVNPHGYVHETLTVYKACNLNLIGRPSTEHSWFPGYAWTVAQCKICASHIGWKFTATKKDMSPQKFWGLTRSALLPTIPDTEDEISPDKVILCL
# [3] = target: T1, Protein cereblon/Hepatocyte growth factor receptor; assay: PROTAC activity at c-Met/CRBN in human EBC-1 cells assessed as reduction in TXNDC9 level at 15.6 nM incubated for 24 hrs by proteomics analysis; assay type: cell-based
# Target sequence in this assay (P08581 25-1390 limits assumed): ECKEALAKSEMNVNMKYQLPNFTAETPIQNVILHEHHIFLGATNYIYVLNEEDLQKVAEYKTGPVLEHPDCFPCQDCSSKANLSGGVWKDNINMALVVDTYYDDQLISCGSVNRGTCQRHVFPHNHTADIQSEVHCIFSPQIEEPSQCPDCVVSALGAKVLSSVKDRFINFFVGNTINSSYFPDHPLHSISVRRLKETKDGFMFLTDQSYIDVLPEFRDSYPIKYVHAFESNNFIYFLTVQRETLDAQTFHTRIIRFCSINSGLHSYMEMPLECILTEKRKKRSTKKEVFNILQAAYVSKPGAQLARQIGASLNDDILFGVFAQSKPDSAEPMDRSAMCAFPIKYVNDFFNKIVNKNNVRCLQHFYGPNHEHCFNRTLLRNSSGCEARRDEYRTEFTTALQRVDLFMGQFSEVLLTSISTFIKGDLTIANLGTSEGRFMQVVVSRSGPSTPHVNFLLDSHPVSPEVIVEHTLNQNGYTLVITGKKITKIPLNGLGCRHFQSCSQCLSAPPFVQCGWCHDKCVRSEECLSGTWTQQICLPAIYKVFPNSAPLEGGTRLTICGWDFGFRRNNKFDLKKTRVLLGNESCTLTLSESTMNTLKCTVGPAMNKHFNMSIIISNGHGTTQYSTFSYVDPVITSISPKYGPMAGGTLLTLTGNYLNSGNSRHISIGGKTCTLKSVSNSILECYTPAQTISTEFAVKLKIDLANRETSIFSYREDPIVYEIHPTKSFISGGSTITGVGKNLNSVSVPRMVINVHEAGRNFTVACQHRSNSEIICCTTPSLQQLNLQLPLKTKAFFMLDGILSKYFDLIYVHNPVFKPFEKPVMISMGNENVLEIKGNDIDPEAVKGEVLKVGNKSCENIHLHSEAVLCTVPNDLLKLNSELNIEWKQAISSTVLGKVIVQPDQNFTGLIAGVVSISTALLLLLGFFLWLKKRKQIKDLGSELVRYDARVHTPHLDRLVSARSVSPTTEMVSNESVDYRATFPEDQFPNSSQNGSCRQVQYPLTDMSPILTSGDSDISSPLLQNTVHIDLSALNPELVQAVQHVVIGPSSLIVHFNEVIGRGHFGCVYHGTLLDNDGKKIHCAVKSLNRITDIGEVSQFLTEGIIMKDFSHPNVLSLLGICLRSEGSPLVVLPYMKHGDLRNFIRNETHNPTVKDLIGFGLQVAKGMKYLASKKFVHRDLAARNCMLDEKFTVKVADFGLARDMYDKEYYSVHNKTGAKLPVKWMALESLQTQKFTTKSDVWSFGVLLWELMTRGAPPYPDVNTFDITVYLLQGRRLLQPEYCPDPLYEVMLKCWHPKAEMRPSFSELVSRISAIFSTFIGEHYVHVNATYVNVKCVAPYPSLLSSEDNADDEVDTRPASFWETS
# Target sequence in this assay (Q96SW2 whole entry partner): as the sequence (Q96SW2 whole entry) above
# [4] = MRT (0 to t) in Sprague-Dawley rat at 2 mg/kg, iv measured upto 24 hrs by LC-MS/MS analysis; assay type: ADME, organism-based; details: in vivo
# [5] = target: T1, Protein cereblon/Hepatocyte growth factor receptor; assay: PROTAC activity at c-Met/CRBN in human EBC-1 cells assessed as reduction in UHRF1 level at 15.6 nM incubated for 24 hrs by proteomics analysis; assay type: cell-based
# Target sequence in this assay (P08581 25-1390 limits assumed): as the sequence (P08581 25-1390 limits assumed) above
# Target sequence in this assay (Q96SW2 whole entry partner): as the sequence (Q96SW2 whole entry) above
# EBC-1 [6] = assay: Induction of apoptosis in human EBC-1 cells assessed as upregulation of PARP level incubated for 24 hrs by Western blot analysis; assay type: functional, cell-based; details: dose 5-50 nM
# [7] = target: T1, Protein cereblon/Hepatocyte growth factor receptor; assay: PROTAC activity at c-Met/CRBN in human EBC-1 cells assessed as reduction in TPX2 level at 15.6 nM incubated for 24 hrs by proteomics analysis; assay type: cell-based
# Target sequence in this assay (P08581 25-1390 limits assumed): as the sequence (P08581 25-1390 limits assumed) above
# Target sequence in this assay (Q96SW2 whole entry partner): as the sequence (Q96SW2 whole entry) above
# [8] = target: T1, Protein cereblon/Hepatocyte growth factor receptor; assay: PROTAC activity at c-Met/CRBN in human EBC-1 cells assessed as induction of c-Met degradation at 15.6 nM incubated for 72 hrs by Western blotting analysis relative to control; assay type: cell-based
# Target sequence in this assay (P08581 25-1390 limits assumed): as the sequence (P08581 25-1390 limits assumed) above
# Target sequence in this assay (Q96SW2 whole entry partner): as the sequence (Q96SW2 whole entry) above
# [9] = target: T1, Protein cereblon/Hepatocyte growth factor receptor; assay: PROTAC activity at c-Met/CRBN in human EBC-1 cells assessed as induction of c-Met degradation at 15.6 nM by Western blotting analysis; assay type: cell-based; details: time 72.0 hrs
# Target sequence in this assay (P08581 25-1390 limits assumed): as the sequence (P08581 25-1390 limits assumed) above
# Target sequence in this assay (Q96SW2 whole entry partner): as the sequence (Q96SW2 whole entry) above
# EBC-1 [10] = assay: Inhibition of colony formation in human EBC-1 cells at 3.9 to 15.6 nM incubated for 7 days by crystal violet staining based analysis; assay type: functional, cell-based; details: dose 3.9-15.6 nM, time 7.0 day
smiles,measurement,setting,value
COc1ccc(C(=O)N2CCC3(CCN(C(=O)CN4CCC(COc5cnc(-c6cccc(Cn7nc(-c8cccc(C#N)c8)ccc7=O)c6)nc5)CC4)CC3)CC2)cc1N1CCC(=O)NC1=O,Activity,EBC-1 [1],86.14%
same,DC50,[2],< 15.6 nM
same,Activity,[3],Active
same,MRT last at 24 h,[4],2.49 h
same,Activity,[5],Active
same,Activity,EBC-1 [6],Dose-dependent-effect
same,Activity,[7],Active
same,Activity,[8],93.1%
same,Activity,[9],Time-dependent-effect
same,inhibition,EBC-1 [10],Active
